In patent US12655173B2, “Hybrid amide derivatives of amphotericin B” (priority 2020, dated 2026):
In brackets after ≈: the same amount, converted by molar mass. Read-outs that look alike come from different tables or passages of the source.

How the values were obtained:
[1] = test system: P. variotii MYA-3630 (QC); test: MIC against moulds; assay type: cell-based; conditions: 5 isolates, AmB (AmBisome)
A. lentulus = test: MIC against moulds; assay type: cell-based; conditions: 6 isolates, AmB (AmBisome)
Cunninghamella sp. = test: MIC against moulds; assay type: cell-based; conditions: 6 isolates, AmB (AmBisome)
Fonsecaeu sp. = test: MIC against moulds; assay type: cell-based; conditions: 6 isolates; AmB (AmBisome)
A. flavus = test: MIC against moulds; assay type: cell-based
Fusarium solani = test: MIC against moulds; assay type: cell-based
Blastomyces dermatitidis = test: MIC against moulds; assay type: cell-based; conditions: 5 isolates, AmB (AmBisome)
Mucor janssenii = test: MIC against moulds; assay type: cell-based; conditions: 6 isolates, AmB (AmBisome)
[2] = UV-Vis sterol binding assay
Protocol: UV-Vis is Binding Assay (FIG. 1A): The protocol for the sterol binding assay (UV-Vis) was developed in our lab. Compounds were dissolved in DMSO at a final concentration of 1 mM. Sterol were first dissolved in CHCl3 (>200 mM) and then diluted to 1 mM concentration with DMSO To synthesize the complex 1 ul of compound solution was taken in a clean eppendorf tube (2 ml) and sterol solution (volume depends on the stoichiometry) was added to it and the volume was made up to 20 ul with DMSO. 0.98 ml of PBS buffer was added to the Eppendorf tube and mixed properly. The absorbance of the solution was measured after 30 mins of incubation.

[3] = Blood plasma stability, human; assay type: in vitro ADME
Fusarium oxysporum = test: MIC against moulds; assay type: cell-based; conditions: 6 isolates, AmB (AmBisome)
Sporothrix schenckii = test: MIC against rare moulds resistant to AmB; assay type: cell-based; conditions: 6 isolates, Table 4
Cryptococcus gattii = test: MIC against yeasts; assay type: cell-based
A. niger = test: MIC against moulds; assay type: cell-based; conditions: 6 isolates, AmB (AmBisome)
Scedosporium boydii = test: MIC against rare moulds resistant to AmB; assay type: cell-based; conditions: 6 isolates, Table 4
Claophialophora bantiana = test: MIC against moulds; assay type: cell-based; conditions: 6 isolates; AmB (AmBisome)
Apophysomyces sp. = test: MIC against moulds; assay type: cell-based; conditions: 3 isolates; AmB (AmBisome)
Lomentospora prolificans = test: MIC against rare moulds resistant to AmB; assay type: cell-based; conditions: 6 isolates, Table 4
Mucor circinelloides = test: MIC against moulds; assay type: cell-based; conditions: for MIC Mucor circinelloides: 6 isolates, AmB (AmBisome)
moulds = test: MICavg / Average MIC against moulds; assay type: cell-based; conditions: for MIC: 157 isolates, Table 2
A. terreus = test: MIC against moulds; assay type: cell-based
Saksenaea sp. = test: MIC against moulds; assay type: cell-based; conditions: 4 isolates; AmB (AmBisome)
Scedosporium aurantiacum = test: MIC against rare moulds resistant to AmB; assay type: cell-based; conditions: 4 isolates, Table 4
[4] = test system: Purpureocillium lilacinum; test: MIC against rare moulds resistant to AmB; assay type: cell-based; conditions: 6 isolates, Table 4
[5] = Liver microsome stability; conditions: rat, dog, monkey; for Liver microsome (T1/2, min): Mouse, human: All species
Histoplasma capsulatum = test: microbe, parasite or virus in culture; assay type: cell-based; conditions: for MIC Histoplasma capsulatum: 6 isolates, AmB (AmBisome)
A. tubingensis = test: MIC against moulds; assay type: cell-based; conditions: for MIC A. tubingensis: 6 isolates, AmB (AmBisome)
A. calldoustus = test: MIC against moulds; assay type: cell-based; conditions: 6 isolates; AmB (AmBisome)
A. fumigatus = test: MIC against moulds; assay type: cell-based
Candida parapsilosis = test: MIC against yeasts; assay type: cell-based
Coccidioides posadasii = test: microbe, parasite or virus in culture; assay type: cell-based; conditions: for MIC Coccidioides posadasii: 6 isolates, AmB (AmBisome)
Candida auris = test: MIC against yeasts; assay type: cell-based
[6] = 10 isolates, Table 3, read-out: MIC Cryptococcus gattii

Structure (SMILES): C[C@@H]1[C@H](O)[C@@H](C)/C=C/C=C/C=C/C=C/C=C/C=C/C=C/[C@H](OC2O[C@H](C)[C@@H](O)[C@H](N)[C@@H]2O)C[C@@H]2O[C@](O)(C[C@@H](O)C[C@@H](O)[C@H](O)CC[C@@H](O)C[C@@H](O)CC(=O)O[C@H]1C)C[C@H](O)[C@H]2C(=O)O (stereo partly shown) [AmB, Amphotericin B]
- MIC ([1]; Paecilomyces variotii): 1 µM (≈ 0.924 µg/mL)
- MIC (A. lentulus; Aspergillus lentulus): 3.75 µM (≈ 3.47 µg/mL)
- MIC (Cunninghamella sp.; Cunninghamella): 2 µM (≈ 1.85 µg/mL)
- MIC (Fonsecaeu sp.): < 0.03 µM
- MIC (A. flavus; Aspergillus flavus, 3 isolates, Table 2A): 4 µM (≈ 3.7 µg/mL)
- MIC (A. flavus; Aspergillus flavus, 6 isolates, AmB (AmBisome)): 1.16 µM (≈ 1.07 µg/mL)
- MIC (Fusarium solani; Fusarium solani, 2 isolates, Table 3A): 3 µM (≈ 2.77 µg/mL)
- MIC (Fusarium solani; Fusarium solani, 6 isolates, AmB (AmBisome)): 1.33 µM (≈ 1.23 µg/mL)
- MIC (Blastomyces dermatitidis; Blastomyces dermatitidis): < 0.03 µM
- MIC (Mucor janssenii; Mucor janssenii): 0.06 µM (≈ 0.0554 µg/mL)
- Binds Cholesterol [2]: Yes
- half-life ([3]; human, blood plasma, read-out: Blood Plasma Stability (T1/2, min) Human): > 289 min
- MIC (Fusarium oxysporum; Fusarium oxysporum): 1.5 µM (≈ 1.39 µg/mL)
- MIC (Sporothrix schenckii; Sporothrix schenckii): 4 µM (≈ 3.7 µg/mL)
- MIC (Cryptococcus gattii; Cryptococcus gattii, 1 isolate, Table 3A, read-out: MIC Cryptococcus gatti): 1 µM (≈ 0.924 µg/mL)
- MIC (Cryptococcus gattii; Cryptococcus gattii, 10 isolates, Table 3, read-out: MIC Cryptococcus gattii): 0.75 µM (≈ 0.693 µg/mL)
- MIC (A. niger; Aspergillus niger): 0.21 µM (≈ 0.194 µg/mL)
- MIC (Scedosporium boydii; Scedosporium boydii): > 16 µM
- MIC (Claophialophora bantiana): 0.375 µM (≈ 0.347 µg/mL)
- MIC (Apophysomyces sp.): 0.75 µM (≈ 0.693 µg/mL)
- MIC (Lomentospora prolificans; Lomentospora prolificans): > 16 µM
- MIC (Mucor circinelloides; Mucor circinelloides, read-out: MIC Mucor circinelloides): 0.125 µM (≈ 0.116 µg/mL)
- MICavg moulds (3 strains) (moulds): 0.92
- MIC (moulds): 0.9 µM (≈ 0.832 µg/mL)
- MICavg moulds (159 strains) (moulds): 0.9
- MIC (A. terreus; Aspergillus terreus, 5 isolates, Table 2A): 7 µM (≈ 6.47 µg/mL)
- MIC (A. terreus; Aspergillus terreus, 6 isolates, AmB (AmBisome)): 3 µM (≈ 2.77 µg/mL)
- MIC (Saksenaea sp.): 0.06 µM (≈ 0.0554 µg/mL)
- MIC (Scedosporium aurantiacum; Scedosporium aurantiacum): > 16 µM
- MIC ([4]; Purpureocillium lilacinum): > 16 µM
- half-life ([5]; mouse, human, liver microsomes): > 2.42 h
- MIC (Histoplasma capsulatum; Histoplasma capsulatum, read-out: MIC Histoplasma capsulatum): 0.06 µM (≈ 0.0554 µg/mL)
- MIC (A. tubingensis; Aspergillus tubingensis, read-out: MIC A. tubingensis): 0.125 µM (≈ 0.116 µg/mL)
- MIC (A. calldoustus): 1.5 µM (≈ 1.39 µg/mL)
- MIC (A. fumigatus; Aspergillus fumigatus, 5 isolates, AmB (AmBisome)): 0.71 µM (≈ 0.656 µg/mL)
- MIC (A. fumigatus; Aspergillus fumigatus, 16 isolates, Table 2A): 2.1 µM (≈ 1.94 µg/mL)
- MIC (Candida parapsilosis; Lodderomyces parapsilosis, 6 isolates, Table 3A): 0.5 µM (≈ 0.462 µg/mL)
- MIC (Candida parapsilosis; Lodderomyces parapsilosis, 8 isolates, Table 3): 1.1 µM (≈ 1.02 µg/mL)
- MIC (Coccidioides posadasii; Coccidioides posadasii, read-out: MIC Coccidioides posadasii): 0.06 µM (≈ 0.0554 µg/mL)
- MIC (Candida auris; Candidozyma auris, 10 isolates, Table 3): 1.2 µM (≈ 1.11 µg/mL)
- MIC (Candida auris; Candidozyma auris, 15 isolates, Table 3A): 2.9 µM (≈ 2.68 µg/mL)

Structure (SMILES): CC1C=CC=CC=CC=CC=CC=CC=CC(OC2OC(C)C(O)C(N)C2O)CC2OC(O)(CC(O)CC(O)C(O)CCC(O)CC(O)CC(=O)OC(C)C(C)C1O)CC(O)C2C(=O)NC(CO)(CO)CO (stereo not shown) [Compound 2]
- MIC [1]: 2.67 µM (≈ 2.74 µg/mL)
- MIC (A. lentulus): 4.33 µM (≈ 4.45 µg/mL)
- MIC (Cunninghamella sp.): 5.33 µM (≈ 5.48 µg/mL)
- MIC (Fonsecaeu sp.): <0.03 µM
- MIC (A. flavus; 6 isolates, AmB (AmBisome)): 1.67 µM (≈ 1.72 µg/mL)
- MIC (Fusarium solani; 6 isolates, AmB (AmBisome)): 14 µM (≈ 14.4 µg/mL)
- MIC (Blastomyces dermatitidis): 0.6 µM (≈ 0.616 µg/mL)
- MIC (Mucor janssenii): 0.92 µM (≈ 0.945 µg/mL)
- Binds Cholesterol [2]: No
- Blood Plasma Stability (T1/2, min) Human [3]: > 289 min
- MIC (Fusarium oxysporum): 13.3 µM (≈ 13.7 µg/mL)
- MIC (Sporothrix schenckii): >5.2 µM
- MIC (Cryptococcus gattii; [6]): 2 µM (≈ 2.05 µg/mL)
- MIC (A. niger): 0.75 µM (≈ 0.77 µg/mL)
- MIC (Scedosporium boydii): >16 µM
- MIC (Claophialophora bantiana): 1.83 µM (≈ 1.88 µg/mL)
- MIC (Apophysomyces sp.): 8.3 µM (≈ 8.53 µg/mL)
- MIC (Lomentospora prolificans): >16 µM
- MIC Mucor circinelloides (Mucor circinelloides): 0.92 µM (≈ 0.945 µg/mL)
- MICavg moulds (3 strains) (moulds): 1
- MIC (moulds): 2.6 µM (≈ 2.67 µg/mL)
- MICavg moulds (159 strains) (moulds): 2.6
- MIC (A. terreus; 6 isolates, AmB (AmBisome)): 2.3 µM (≈ 2.36 µg/mL)
- MIC (Saksenaea sp.): 0.36 µM (≈ 0.37 µg/mL)
- MIC (Scedosporium aurantiacum): >16 µM
- MIC [4]: >16 µM
- Liver microsome (T1/2, min) [5]: >145 min
- MIC Histoplasma capsulatum (Histoplasma capsulatum): 0.08 µM (≈ 0.0822 µg/mL)
- MIC A. tubingensis (A. tubingensis): 0.92 µM (≈ 0.945 µg/mL)
- MIC (A. calldoustus): 2.33 µM (≈ 2.39 µg/mL)
- MIC (A. fumigatus; 5 isolates, AmB (AmBisome)): 2.33 µM (≈ 2.39 µg/mL)
- MIC (Candida parapsilosis; 8 isolates, Table 3): 1.6 µM (≈ 1.64 µg/mL)
- MIC Coccidioides posadasii (Coccidioides posadasii): 0.5 µM (≈ 0.514 µg/mL)
- MIC (Candida auris; 10 isolates, Table 3): 2.6 µM (≈ 2.67 µg/mL)

Structure (SMILES): CC1C=CC=CC=CC=CC=CC=CC=CC(OC2OC(C)C(O)C(N)C2O)CC2OC(O)(CC(O)CC(O)C(O)CCC(O)CC(O)CC(=O)OC(C)C(C)C1O)CC(O)C2C(=O)NC(CO)CO (stereo not shown) [Compound 1]
- MIC [1]: 2 µM (≈ 1.99 µg/mL)
- MIC (A. lentulus): 2.33 µM (≈ 2.32 µg/mL)
- MIC (Cunninghamella sp.): 4 µM (≈ 3.99 µg/mL)
- MIC (Fonsecaeu sp.): <0.03 µM
- MIC (A. flavus; 6 isolates, AmB (AmBisome)): 1.67 µM (≈ 1.67 µg/mL)
- MIC (Fusarium solani; 6 isolates, AmB (AmBisome)): 5.67 µM (≈ 5.65 µg/mL)
- MIC (Blastomyces dermatitidis): 0.25 µM (≈ 0.249 µg/mL)
- MIC (Mucor janssenii): 0.5 µM (≈ 0.499 µg/mL)
- Binds Cholesterol [2]: No
- Blood Plasma Stability (T1/2, min) Human [3]: >289; >289 min
- MIC (Fusarium oxysporum): 6 µM (≈ 5.98 µg/mL)
- MIC (Sporothrix schenckii): 6 µM (≈ 5.98 µg/mL)
- MIC (Cryptococcus gattii; [6]): 1.6 µM (≈ 1.6 µg/mL)
- MIC (A. niger): 0.5 µM (≈ 0.499 µg/mL)
- MIC (Scedosporium boydii): >16 µM
- MIC (Claophialophora bantiana): 1.17 µM (≈ 1.17 µg/mL)
- MIC (Apophysomyces sp.): 6.8 µM (≈ 6.78 µg/mL)
- MIC (Lomentospora prolificans): >16 µM
- MIC Mucor circinelloides (Mucor circinelloides): 0.58 µM (≈ 0.578 µg/mL)
- MICavg moulds (3 strains) (moulds): 1.6
- MIC (moulds): 1.4 µM (≈ 1.4 µg/mL)
- MICavg moulds (159 strains) (moulds): 1.4
- MIC (A. terreus; 6 isolates, AmB (AmBisome)): 2 µM (≈ 1.99 µg/mL)
- MIC (Saksenaea sp.): 0.23 µM (≈ 0.229 µg/mL)
- MIC (Scedosporium aurantiacum): >16 µM
- MIC [4]: >16 µM
- Liver microsome (T1/2, min) [5]: >145 min
- MIC Histoplasma capsulatum (Histoplasma capsulatum): 0.06 µM (≈ 0.0598 µg/mL)
- MIC A. tubingensis (A. tubingensis): 0.83 µM (≈ 0.828 µg/mL)
- MIC (A. calldoustus): 2.17 µM (≈ 2.16 µg/mL)
- MIC (A. fumigatus; 5 isolates, AmB (AmBisome)): 1.33 µM (≈ 1.33 µg/mL)
- MIC (Candida parapsilosis; 8 isolates, Table 3): 1.8 µM (≈ 1.79 µg/mL)
- MIC Coccidioides posadasii (Coccidioides posadasii): 0.25 µM (≈ 0.249 µg/mL)
- MIC (Candida auris; 10 isolates, Table 3): 2.6 µM (≈ 2.59 µg/mL)
